For this test, the target named is T1, protease 1147 (Cohnella sp. A01, UniProt A0A5J6KIY6).
T1 construct: full length, 169 residues, no signal peptide, C-terminal His-tag (pET26b(+)), E. coli BL21 (DE3), about 18 kDa on SDS-PAGE; N-terminus from primer MKKVAFL; Ni-NTA
T1 sequence (A0A5J6KIY6 1-169): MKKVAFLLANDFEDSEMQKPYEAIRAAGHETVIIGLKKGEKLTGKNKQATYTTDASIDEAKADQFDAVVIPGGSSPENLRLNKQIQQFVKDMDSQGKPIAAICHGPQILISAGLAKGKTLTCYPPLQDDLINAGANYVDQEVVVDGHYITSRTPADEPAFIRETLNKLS
The test is described as follows: casein hydrolysis, TCA-soluble A280. It counts as biochemical. The following applies: […] and […] inhibitor; casein substrate; table prints NA, text says completely inhibited; […] C, pH […].

For `CC(C)C[C@H](NC(=O)[C@@H]1O[C@H]1C(=O)O)C(=O)NCCCCN=C(N)N` [E-64, Trans-Epoxysuccinyl-L-leucylamido (4-guanidino) butane], the “relative activity (%)” value is “completely inhibited by IAM, E-64, and leupeptin, which are the typical cysteine protease inhibitors”.

The record behind these values is paper PMC7310833, “Structural and biochemical characterization of a novel thermophilic Coh01147 protease” (PLoS ONE, 2020).
